In patent US20260092061A1, “COMPOUNDS FOR TARGETED PROTEIN DEGRADATION” (Amphista Therapeutics Limited, priority 2022, published 2026) one finds Dmax and DC50 data, which are given here for seven compounds.

By Dmax is commonly meant the largest share of the target that was removed. The DC50 is the concentration at which degradation of the target reaches its halfway point.

Experiment [1] deals with T1, BRD9 (Homo sapiens, UniProt Q9H8M2).
T1 sequence (Q9H8M2 1-597): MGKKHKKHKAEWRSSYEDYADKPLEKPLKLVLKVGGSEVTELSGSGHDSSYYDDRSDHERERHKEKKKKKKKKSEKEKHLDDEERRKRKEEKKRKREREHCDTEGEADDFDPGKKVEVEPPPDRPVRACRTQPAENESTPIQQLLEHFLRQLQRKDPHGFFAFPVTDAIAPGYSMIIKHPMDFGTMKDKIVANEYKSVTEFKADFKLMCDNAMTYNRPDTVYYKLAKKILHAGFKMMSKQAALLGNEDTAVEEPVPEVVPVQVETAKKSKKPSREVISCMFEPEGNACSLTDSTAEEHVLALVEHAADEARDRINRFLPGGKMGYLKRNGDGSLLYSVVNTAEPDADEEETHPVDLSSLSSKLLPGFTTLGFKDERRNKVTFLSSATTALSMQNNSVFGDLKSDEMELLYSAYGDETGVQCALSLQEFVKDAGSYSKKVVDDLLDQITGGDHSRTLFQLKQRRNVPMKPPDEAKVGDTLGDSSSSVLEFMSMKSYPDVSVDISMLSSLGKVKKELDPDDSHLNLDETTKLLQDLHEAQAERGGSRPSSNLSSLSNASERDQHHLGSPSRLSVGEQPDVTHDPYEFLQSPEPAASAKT
Description: BRD9 degradation, HiBiT-BRD9 KI HEK293 (LgBiT) cells, NanoGlo Lytic Endpoint assay (Assay Protocol 1). Particulars: Table 2, BRD9 degradation, Assay Protocol 1; for Dmax at 1 µM: HEK293, 1 μM compound at 6 h of treatment, read-out: Assay 1 Dmax; for DC50: 6 h of treatment, read-out: Assay 1 DC50. The experiment is classed as cell-based. Here is the method: HiBiT-BRD9 KI HEK293 (LgBiT) Cells (Promega CS3023412) were seeded at 8000 cells per well (38 μL) in sterile white bottom 384 well plates (Invitrogen 164610 or Greiner 781080) and incubated overnight at 37° C. with 5% CO2. The next day, compounds were prepared at 1000× final concentration in DMSO and diluted 1:100 in media (DMEM PAN Biotech P04-03550+10% FBS ATCC 302025). 4 μL compound was added to each well of the cell plate and incubated for 6 h at 37° C. with 5% CO2 BRD9 expression was quantified using the NanoGlo Lytic Endpoint assay (Promega N3050). The lytic buffer was equilibrated to room temperature for 10-15 min before lytic reagent was prepared by adding substrate (1:50) and LgBit protein (1:100) in lytic buffer. 40 μL lytic reagent mix was added to each well of the cel plate and plates were centrifuged briefly at ˜50g. Plates were incubated with shaking (350 RPM) for 12-24 min before reading using the LUM plus module of a BMG Pherastar FSX. Data was analysed using Dotmatics software and % BRD9 remaining was calculated by normalisation to average data from high and low control wells (DMSO treated cels and no cells respectively).
(In general: HiBiT is a short tag that completes a luciferase, so light tracks the accessible tagged protein.)

In experiment [2] the target is T1, BRD9. Nature of the experiment: Degradation of BRD9 (IF), immunofluorescence in MV4-11 cells, 24 hours (Assay Protocol 2). The experiment is classed as cell-based. The arrangement: A suspension of MV4-11 cells (ATCC CRL-9591) was prepared; host or cells: MV4-11. Particulars: BRD9 degradation. In outline:
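MV4-11 cells treated with compound 24 h at 37° C., then fixed, permeabilised and immunostained for BRD9 (anti-BRD9 E4Q3F, Alexa 647 secondary, Hoechst counterstain). High-content imaging quantified nuclear BRD9 signal; % BRD9 remaining normalised to DMSO and 100 nM CFT-8634 controls.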

For the compound `COc1cc(-c2cn(C)c(=O)c3cnccc23)cc(OC)c1CN1CCN(Cc2cccc3c2CCN(C(=O)/C(C#N)=C\c2ccns2)C3C)CC1` (mixture of isomers) [Compound A23, (E/Z)-2-(5-((4-(2,6-dimethoxy-4-(2-methyl-1-oxo-1,2-dihydro-2,7-naphthyridin-4-yl)benzyl)piperazin-1-yl)methyl)-1-methyl-1,2,3,4-tetrahydroisoquinoline-2-carbonyl)-3-(isothiazol-5-yl)acrylonitrile], on BRD9 [1], the Dmax at 1 µM was in the range of 40 to 70% and the DC50 was 0.00125 to 0.01 µM.
`COc1cc(-c2cn(C)c(=O)c3cnccc23)cc(OC)c1CN1CCN(Cc2cccc3c2CCN(C(=O)/C(C#N)=C\C(C)(C)CF)C3C)CC1` (mixture of isomers) [Compound A18, (E/Z)-2-(5-((4-(2,6-dimethoxy-4-(2-methyl-1-oxo-1,2-dihydro-2,7-naphthyridin-4-yl)benzyl)piperazin-1-yl)methyl)-1-methyl-1,2,3,4-tetrahydroisoquinoline-2-carbonyl)-5-fluoro-4,4-dimethylpent-2-enenitrile]: on BRD9 [1], the Dmax at 1 µM lay in the range of 40 to 70% and the half-maximal degradation concentration (DC50) was less than 0.00125 µM.
`COc1cc(-c2cn(C)c(=O)c3cnccc23)cc(OC)c1CN1CCN(Cc2cccc3c2CCN(C(=O)/C(C#N)=C\c2nc(C)cs2)C3C)CC1` (mixture of isomers) [Compound A9, (E/Z)-2-(5-((4-(2,6-dimethoxy-4-(2-methyl-1-oxo-1,2-dihydro-2,7-naphthyridin-4-yl)benzyl)piperazin-1-yl)methyl)-1-methyl-1,2,3,4-tetrahydroisoquinoline-2-carbonyl)-3-(4-methylthiazol-2-yl)acrylonitrile]: on BRD9 [1], the greatest degradation seen (Dmax) at 1 µM lay in the range of 40 to 70% and the DC50 is less than 0.00125 µM.
Regarding `COc1cc(-c2cn(C)c(=O)c(C)c2C)cc(OC)c1CN1CC2CC1CN2Cc1cccc2c1CCN(C(=O)/C(C#N)=C/c1cccc(Br)n1)C2C` (mixture of isomers) [Compound A64, (E/Z)-3-(6-bromopyridin-2-yl)-2-(5-((5-(2,6-dimethoxy-4-(1,4,5-trimethyl-6-oxo-1,6-dihydropyridin-3-yl)benzyl)-2,5-diazabicyclo[2.2.1]heptan-2-yl)methyl)-1-methyl-1,2,3,4-tetrahydroisoquinoline-2-carbonyl)acrylonitrile], at BRD9 [1], the maximal degradation (Dmax) at 1 µM was more than 75% and the 50% degradation concentration (DC50) was in the range of 0.00125 to 0.01 µM.
Take `COc1cc(-c2cn(C)c(=O)c3cnccc23)cc(OC)c1CN1CCN(Cc2cccc3c2CCN(C(=O)/C(C#N)=C/c2nc4ccccc4s2)C3C)CC1` (mixture of isomers) [Compound A6]: on BRD9 [1], the maximal degradation (Dmax) at 1 µM was more than 75% and the 50% degradation concentration (DC50) is less than 0.00125 µM.
On to `COc1cc(-c2cn(C)c(=O)c3cnccc23)cc(OC)c1CN1CCN(Cc2cccc3c2CCN(C(=O)/C(C#N)=C\c2ccc(F)cn2)C3C)CC1` (mixture of isomers) [Compound A12, (E/Z)-2-(5-((4-(2,6-dimethoxy-4-(2-methyl-1-oxo-1,2-dihydro-2,7-naphthyridin-4-yl)benzyl)piperazin-1-yl)methyl)-1-methyl-1,2,3,4-tetrahydroisoquinoline-2-carbonyl)-3-(5-fluoropyridin-2-yl)acrylonitrile], for which, on BRD9 [1], the greatest degradation seen (Dmax) at 1 µM is 40 to 70% and the DC50 was 0.01 to 0.025 µM.
`COc1cc(-c2cn(C)c(=O)c(C)c2C)cc(OC)c1CN1CCN(Cc2ccc3c(c2)[C@@H](C)N(C(=O)/C(C#N)=C/C(C)(C)C)CC3)CC12CC2` (mixture of isomers) [Compound B199, (E/Z)-2-(7-((4-(2,6-dimethoxy-4-(1,4,5-trimethyl-6-oxo-1,6-dihydropyridin-3yl)benzyl)-4,7-diazaspiro[2.5]octan-7-yl)methyl)-1-methyl-1,2,3,4-tetrahydroisoquinoline-2-carbonyl)-4,4-dimethylpent-2-enenitrile]: on BRD9 [2] (Assay protocol 2, read-out: DC50), the DC50 was 0.025 to 1 µM. The maximal degradation (Dmax) on BRD9 [2] (MV4-11, Assay protocol 2, read-out: Dmax) is 40 to 70%.
